This is an account of results in BindingDB's records for doi:10.3109/14756366.2013.823958 (Birla Institute of Technology, 2014).

Each structure is given as a SMILES string.

The IC50 is the concentration that gives 50% inhibition. High values mean weaker potency in that assay, low ones greater potency in that assay.

The test addresses T1, Secreted chorismate mutase (Mycobacterium tuberculosis (strain ATCC 25618 / H37Rv), UniProt P9WIB9).
T1 sequence (P9WIB9 whole entry): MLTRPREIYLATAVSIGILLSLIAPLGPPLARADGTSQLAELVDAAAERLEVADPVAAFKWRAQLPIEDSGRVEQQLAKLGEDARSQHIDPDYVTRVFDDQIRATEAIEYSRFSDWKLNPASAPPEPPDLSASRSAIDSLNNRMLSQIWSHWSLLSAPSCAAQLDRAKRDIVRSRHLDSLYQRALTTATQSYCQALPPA
Put plainly: CM Assay. The following applies: pH 7.5; 37 °C. As to the method: Reaction volumes of 0.4 mL of chorismate (typically, 1 mM) in 50 mM Tris-HCl (pH 7.5), 0.5 mM EDTA, 0.1 mg/mL bovine serum albumin, and 10 mM β-mercaptoethanol were incubated at 37 °C for 5 min. The reaction was started with 5 pmol of MTB CM in a 10-μl volume (i.e. 185 ng of MTB CM equivalent toa 12.5nM final concentration of the dimer based on the molecular mass of 36 948 Da). The reaction was allowed to proceed at 37 °C and was terminated after 1 min to 5 min with 0.4 ml of 1N HCl. After a further incubation at 37 °C for 10 min to convert prephenate, which is formed in the enzymatic reaction, tophenylpyruvate, 0.8 ml of 2.5N NaOH was added. The absorbance of the phenylpyruvate chromophore was read at 320 nm. We set up a blank with no enzyme for every reaction to account for the non-enzymatic conversion of chorismate to prephenate and added the enzyme after NaOH addition. The A320 for the blank varied from 0.1 to 0.3, depending on the concentration of chorismate and duration of the reaction. Each reaction was carried out in triplicates.
Consider `Cc1ccc(C(C)C)cc1O`, for which half-maximal inhibition (IC50) was put at 1.06 µM. To `C=CCc1ccc(O)c(OC)c1` [2-methoxy-4-(prop-2-en-1-yl)phenol4-allyl-2-methoxyphenol] belongs 28.6 µM; to `COc1cc(C=O)ccc1O` [4-hydroxy-3-methoxybenzaldehyde], 24.8 µM. With `Cc1ccc(C(C)C)c(O)c1` [5-methyl-2-(propan-2-yl)phenol] the figure was 28.4 µM; with `C=C(C)C1CCC(C)CC1O` (stereo not drawn) [(±)Neo isopulegol], 13.6 µM. With `Cc1cc(O)cc(C(C)C)c1` [Carvacrol derivative, 7] the figure was 26.8 µM; with `Cc1ccc(C(C)C)cc1` [Carvacrol derivative, 8], 11.6 µM. The compound `Cc1ccccc1O` [Carvacrol derivative, 9] registered an IC50 of 23.1 µM.

Compound `CC(C)c1cccc(O)c1` [Carvacrol derivative, 10] had an IC50 of 21.4 µM. As to `Cc1cc(Cl)c(C(C)C)cc1O` [Carvacrol derivative, 15], the IC50 was 13.7 µM. To `CC1CCC(C(C)C)C(O)C1` (stereo not drawn) [Menthol] belongs 26.4 µM; to `CC(=O)Oc1cc(C)ccc1C(C)C` [Thymol derivative, 17], 4.08 µM. With `COc1cc(C)ccc1C(C)C` [Thymol derivative, 21], the IC50 came to 21.6 µM.
